Experimental data taken from patent publication US20250099466A1 (BRISTOL-MYERS SQUIBB COMPANY, priority 2021, published 2025).

Key:
[1] = system: subjects undergoing elective total knee replacement surgery; assay: Phase 2 study of milvexian versus enoxaparin after elective total knee replacement: venous thromboembolism events; format: in vivo, human; conditions: for Major VTE % / Major VTE n / Total VTE % / Total VTE RR vs. Enoxaparin / Total VTE n: mITT, Day 14; for Asymptomatic distal DVT % / Asymptomatic distal DVT n / Asymptomatic proximal DVT % / Asymptomatic proximal DVT n / Death n / Distal DVT % / Distal DVT n / Non-fatal PE n / Proximal DVT % / Proximal DVT n / Symptomatic distal DVT n / Symptomatic proximal DVT n / Non-fatal PE % / Symptomatic distal DVT %: through day 14; for incidence of segments with the most severe DVT severity score of 3: subjects with DVT on venography
Text: [table] […] The study used a prospective, randomized, open-label, blinded endpoint (PROBE) design. […] The enoxaparin control arm likewise completed its pre-specified randomization of 300 subjects. […] FIG. 1 provides the study design, including number of subjects randomized into each study arm. […] An adaptive design was used to optimize patient recruitment for the dose-response evaluation. The number of dose regimens, the option to implement additional once daily dosing regimens, and the randomization ratio were based on the results of the periodic reviews and interim analysis. […] Randomization was performed postoperatively using a centralized interactive web-based response system and was stratified by geographic region of the study centers. […] Enoxaparin was given subcutaneously at a dose of 40 mg once daily and was started either the evening before or 12 to 24 hours after surgery. […] The primary efficacy outcome was venous thromboembolism, defined as the composite of asymptomatic deep-vein thrombosis (detected by mandatory unilateral venography performed 10 to 14 days after surgery), confirmed symptomatic venous thromboembolism (symptomatic deep-vein thrombosis of the leg or nonfatal pulmonary embolism), or death. […] Factor XI antisense oligonucleotide for prevention of venous thrombosis. N Engl J Med 2015; 372:232-40; Fuji et al., A dose-ranging study evaluating the oral factor Xa inhibitor edoxaban for the prevention of venous thromboembolism in patients undergoing total knee arthroplasty. J Thromb Haemost 2010; 8:2458-68). The major secondary efficacy outcomes were: (a) proximal deep-vein thrombosis (symptomatic or asymptomatic), (b) distal deep-vein thrombosis (symptomatic or asymptomatic) (c) nonfatal pulmonary embolism, and (d) death. An exploratory efficacy outcome was the extent of venous thrombosis on venography, which was assessed by the adjudication committee using predefined categories. […] Statistics in Medicine 2014; 33:1646-61). […] Venograms, assessed by independent blinded adjucators, were used to identify, and to assign DVT severity scores to, subjects with DVT. […] For each evaluated segment, a severity score was assigned depending on the presence and, if present, extension of the clot in the segment of the vein. Severity scores, on a scale of 0-3, were assigned as follows: 0=no clot; 1=less than ⅓; 2=greater than or equal to ⅓ but less than ⅔; and 3=greater than ⅔ the length of the vein segment.

aPTT = aPTT prolongation in healthy volunteers; format: in vivo, human; conditions: 50-mg once daily dose, for about 24 hours
[2] = milvexian all regimens combined
[3] = milvexian combined BID regimens

SMILES: C[C@@H]1CCC[C@H](n2cnc(-c3cc(Cl)ccc3-n3cc(Cl)nn3)cc2=O)c2cc(ccn2)-c2c(cnn2C(F)F)NC1=O [milvexian, (5R,9S)-9-(4-(5-chloro-2-(4-chloro-1H-1,2,3-triazol-1-yl)phenyl)-6-oxopyrimidin-1(6H)-yl)-21-(difluoromethyl)-5-methyl-21H-3-aza-1(4,2)-pyridina-2(5,4)-pyrazolacyclononaphan-4-one]
- Major VTE % ([1]; milvexian 25 mg BID): 0.8%
- Major VTE n ([1]; milvexian 25 mg BID): 1 n
- Total VTE % ([1]; milvexian 25 mg BID): 21.0%
- Total VTE RR vs. Enoxaparin ([1]; milvexian 25 mg BID): 0.97
- Total VTE n ([1]; milvexian 25 mg BID): 27 n
- Major VTE % ([1]; milvexian 25 mg BID, listed as Milvexian): (0.8%)
- Asymptomatic distal DVT % ([1]; milvexian 25 mg BID): 20.2%
- Asymptomatic distal DVT n ([1]; milvexian 25 mg BID): 26 n
- Asymptomatic proximal DVT % ([1]; milvexian 25 mg BID): 0.8%
- Asymptomatic proximal DVT n ([1]; milvexian 25 mg BID): 1 n
- Death n ([1]; milvexian 25 mg BID): 0 n
- Distal DVT % ([1]; milvexian 25 mg BID): 20.2%
- Distal DVT n ([1]; milvexian 25 mg BID): 26 n
- Non-fatal PE n ([1]; milvexian 25 mg BID): 0 n
- Proximal DVT % ([1]; milvexian 25 mg BID): 0.8%
- Proximal DVT n ([1]; milvexian 25 mg BID): 1 n
- Symptomatic distal DVT n ([1]; milvexian 25 mg BID): 0 n
- Symptomatic proximal DVT n ([1]; milvexian 25 mg BID): 0 n
- Major VTE n ([1]; milvexian 25 mg once daily): 0 n
- Total VTE % ([1]; milvexian 25 mg once daily): (25.0%)
- Total VTE RR vs. Enoxaparin ([1]; milvexian 25 mg once daily): 1.00
- Total VTE n ([1]; milvexian 25 mg once daily): 7 n
- Major VTE % ([1]; milvexian 50 mg BID): 0.8%
- Major VTE n ([1]; milvexian 50 mg BID): 1 n
- Total VTE % ([1]; milvexian 50 mg BID): 11.3%
- Total VTE RR vs. Enoxaparin ([1]; milvexian 50 mg BID): 0.53
- Total VTE n ([1]; milvexian 50 mg BID): 14 n
- Major VTE % ([1]; milvexian 50 mg BID, listed as Milvexian): (0.8%)
- incidence of segments with the most severe DVT severity score of 3 ([1]; milvexian 50 mg BID): 0%
- Asymptomatic distal DVT % ([1]; milvexian 50 mg BID): 10.5%
- Asymptomatic distal DVT n ([1]; milvexian 50 mg BID): 13 n
- Asymptomatic proximal DVT n ([1]; milvexian 50 mg BID): 0 n
- Death n ([1]; milvexian 50 mg BID): 0 n
- Distal DVT % ([1]; milvexian 50 mg BID): 10.5%
- Distal DVT n ([1]; milvexian 50 mg BID): 13 n
- Non-fatal PE % ([1]; milvexian 50 mg BID): 0.8%
- Non-fatal PE n ([1]; milvexian 50 mg BID): 1 n
- Proximal DVT n ([1]; milvexian 50 mg BID): 0 n
- Symptomatic distal DVT n ([1]; milvexian 50 mg BID): 0 n
- Symptomatic proximal DVT n ([1]; milvexian 50 mg BID): 0 n
- Major VTE % ([1]; milvexian 50 mg once daily): 1.6%
- Major VTE n ([1]; milvexian 50 mg once daily): 2 n
- Total VTE % ([1]; milvexian 50 mg once daily): (23.6%)
- Total VTE RR vs. Enoxaparin ([1]; milvexian 50 mg once daily): 1.15
- Total VTE n ([1]; milvexian 50 mg once daily): 30 n
- Major VTE % ([1]; milvexian 50 mg once daily, listed as Milvexian): (1.6%)
- Major VTE % ([1]; milvexian 100 mg BID): 1.5%
- Major VTE n ([1]; milvexian 100 mg BID): 2 n
- Total VTE % ([1]; milvexian 100 mg BID): 9.0%
- Total VTE RR vs. Enoxaparin ([1]; milvexian 100 mg BID): 0.42
- Total VTE n ([1]; milvexian 100 mg BID): 12 n
- Major VTE % ([1]; milvexian 100 mg BID, listed as Milvexian): (1.5%)
- incidence of segments with the most severe DVT severity score of 3 ([1]; milvexian 100 mg BID): 1.52%
- Asymptomatic distal DVT % ([1]; milvexian 100 mg BID): 7.5%
- Asymptomatic distal DVT n ([1]; milvexian 100 mg BID): 10 n
- Asymptomatic proximal DVT % ([1]; milvexian 100 mg BID): 0.7%
- Asymptomatic proximal DVT n ([1]; milvexian 100 mg BID): 1 n
- Death n ([1]; milvexian 100 mg BID): 0 n
- Distal DVT % ([1]; milvexian 100 mg BID): 7.5%
- Distal DVT n ([1]; milvexian 100 mg BID): 10 n
- Non-fatal PE % ([1]; milvexian 100 mg BID): 0.7%
- Non-fatal PE n ([1]; milvexian 100 mg BID): 1 n
- Proximal DVT % ([1]; milvexian 100 mg BID): 0.7%
- Proximal DVT n ([1]; milvexian 100 mg BID): 1 n
- Symptomatic distal DVT % ([1]; milvexian 100 mg BID): 0.7%
- Symptomatic distal DVT n ([1]; milvexian 100 mg BID): 1 n
- Symptomatic proximal DVT n ([1]; milvexian 100 mg BID): 0 n
- Major VTE n ([1]; milvexian 200 mg BID): 0 n
- Total VTE % ([1]; milvexian 200 mg BID): 7.6%
- Total VTE RR vs. Enoxaparin ([1]; milvexian 200 mg BID): 0.37
- Total VTE n ([1]; milvexian 200 mg BID): 10 n
- incidence of segments with the most severe DVT severity score of 3 ([1]; milvexian 200 mg BID): 2.73%
- Asymptomatic distal DVT % ([1]; milvexian 200 mg BID): 7.6%
- Asymptomatic distal DVT n ([1]; milvexian 200 mg BID): 10 n
- Asymptomatic proximal DVT n ([1]; milvexian 200 mg BID): 0 n
- Death n ([1]; milvexian 200 mg BID): 0 n
- Distal DVT % ([1]; milvexian 200 mg BID): 7.6%
- Distal DVT n ([1]; milvexian 200 mg BID): 10 n
- Non-fatal PE n ([1]; milvexian 200 mg BID): 0 n
- Proximal DVT n ([1]; milvexian 200 mg BID): 0 n
- Symptomatic distal DVT n ([1]; milvexian 200 mg BID): 0 n
- Symptomatic proximal DVT n ([1]; milvexian 200 mg BID): 0 n
- Major VTE n ([1]; milvexian 200 mg once daily): 0 n
- Total VTE % ([1]; milvexian 200 mg once daily): (6.5%)
- Total VTE RR vs. Enoxaparin ([1]; milvexian 200 mg once daily): 0.30
- Total VTE n ([1]; milvexian 200 mg once daily): 8 n
- incidence of segments with the most severe DVT severity score of 3 ([1]; milvexian 200 mg once daily): 0%
- Total VTE % [1, 2]: 13.6%
- Total VTE n [1, 2]: 108 n
- reduction of total VTE compared to enoxaparin ([1]; milvexian at total daily doses of ≥200 mg): > 50%
- Total VTE % [1, 3]: 12.2%
- Total VTE n [1, 3]: 63 n
- Asymptomatic distal DVT % [1, 3]: 11.4%
- Asymptomatic distal DVT n [1, 3]: 59 n
- Asymptomatic proximal DVT % [1, 3]: 0.4%
- Asymptomatic proximal DVT n [1, 3]: 2 n
- Death n [1, 3]: 0 n
- Distal DVT % [1, 3]: 11.4%
- Distal DVT n [1, 3]: 59 n
- Non-fatal PE % [1, 3]: 0.4%
- Non-fatal PE n [1, 3]: 2 n
- Proximal DVT % [1, 3]: 0.4%
- Proximal DVT n [1, 3]: 2 n
- Symptomatic distal DVT % [1, 3]: 0.2%
- Symptomatic distal DVT n [1, 3]: 1 n
- Symptomatic proximal DVT n [1, 3]: 0 n
- prolongation of aPTT (aPTT): 1.5 fold
